Key:
Type in all cases: biochemical
[1] = target: T1, Porcine Ventricle myofibrils (left ventricle of Yucatan minipigs) (Sus scrofa, UniProt P79293); assay: Myofibril ATPase assay (PK/LDH NADH-coupled), ventricle myofibrils
T1 construct: Myofibrils from porcine cardiac muscle was isolated from the left ventricle of Yucatan minipigs; tissue Exemplar Genetics; host or cells: left ventricle of Yucatan minipigs
Method in brief: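 NADH depletion (A340) coupled through pyruvate kinase/lactate dehydrogenase reports ATPase rate of porcine left-ventricle myofibrils over 75 min kinetic reads. Regression slopes, vehicle-normalized, fitted by 4-parameter logistic give EC25 and, where available, EC50.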

Porcine Atria myofibrils = assay: Myofibril ATPase assay (PK/LDH NADH-coupled), atria myofibrils
Method in brief: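 Values are EC25% (and, for inhibitors, EC50%) from 4-parameter logistic fits of activity normalized to vehicle wells. Rates came from linear regression of 340 nm kinetic reads (every 1.5-2 min, 75 min) of NADH-coupled ATP turnover by porcine atria myofibrils.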

[2] = test system: Rabbit Skeletal myofibrils (rabbit psoas muscle); assay: Myofibril ATPase assay (PK/LDH NADH-coupled), skeletal myofibrils
Method in brief: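 ATPase rate taken as linear-regression slope of A340 (NADH depletion through PK/LDH coupling) over a 75 min kinetic read, with psoas-derived rabbit skeletal myofibrils at pH 7.0. Four-parameter fits of vehicle-normalized activity give EC25 and, where reached, EC50.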

T1 sequence (P79293 whole entry): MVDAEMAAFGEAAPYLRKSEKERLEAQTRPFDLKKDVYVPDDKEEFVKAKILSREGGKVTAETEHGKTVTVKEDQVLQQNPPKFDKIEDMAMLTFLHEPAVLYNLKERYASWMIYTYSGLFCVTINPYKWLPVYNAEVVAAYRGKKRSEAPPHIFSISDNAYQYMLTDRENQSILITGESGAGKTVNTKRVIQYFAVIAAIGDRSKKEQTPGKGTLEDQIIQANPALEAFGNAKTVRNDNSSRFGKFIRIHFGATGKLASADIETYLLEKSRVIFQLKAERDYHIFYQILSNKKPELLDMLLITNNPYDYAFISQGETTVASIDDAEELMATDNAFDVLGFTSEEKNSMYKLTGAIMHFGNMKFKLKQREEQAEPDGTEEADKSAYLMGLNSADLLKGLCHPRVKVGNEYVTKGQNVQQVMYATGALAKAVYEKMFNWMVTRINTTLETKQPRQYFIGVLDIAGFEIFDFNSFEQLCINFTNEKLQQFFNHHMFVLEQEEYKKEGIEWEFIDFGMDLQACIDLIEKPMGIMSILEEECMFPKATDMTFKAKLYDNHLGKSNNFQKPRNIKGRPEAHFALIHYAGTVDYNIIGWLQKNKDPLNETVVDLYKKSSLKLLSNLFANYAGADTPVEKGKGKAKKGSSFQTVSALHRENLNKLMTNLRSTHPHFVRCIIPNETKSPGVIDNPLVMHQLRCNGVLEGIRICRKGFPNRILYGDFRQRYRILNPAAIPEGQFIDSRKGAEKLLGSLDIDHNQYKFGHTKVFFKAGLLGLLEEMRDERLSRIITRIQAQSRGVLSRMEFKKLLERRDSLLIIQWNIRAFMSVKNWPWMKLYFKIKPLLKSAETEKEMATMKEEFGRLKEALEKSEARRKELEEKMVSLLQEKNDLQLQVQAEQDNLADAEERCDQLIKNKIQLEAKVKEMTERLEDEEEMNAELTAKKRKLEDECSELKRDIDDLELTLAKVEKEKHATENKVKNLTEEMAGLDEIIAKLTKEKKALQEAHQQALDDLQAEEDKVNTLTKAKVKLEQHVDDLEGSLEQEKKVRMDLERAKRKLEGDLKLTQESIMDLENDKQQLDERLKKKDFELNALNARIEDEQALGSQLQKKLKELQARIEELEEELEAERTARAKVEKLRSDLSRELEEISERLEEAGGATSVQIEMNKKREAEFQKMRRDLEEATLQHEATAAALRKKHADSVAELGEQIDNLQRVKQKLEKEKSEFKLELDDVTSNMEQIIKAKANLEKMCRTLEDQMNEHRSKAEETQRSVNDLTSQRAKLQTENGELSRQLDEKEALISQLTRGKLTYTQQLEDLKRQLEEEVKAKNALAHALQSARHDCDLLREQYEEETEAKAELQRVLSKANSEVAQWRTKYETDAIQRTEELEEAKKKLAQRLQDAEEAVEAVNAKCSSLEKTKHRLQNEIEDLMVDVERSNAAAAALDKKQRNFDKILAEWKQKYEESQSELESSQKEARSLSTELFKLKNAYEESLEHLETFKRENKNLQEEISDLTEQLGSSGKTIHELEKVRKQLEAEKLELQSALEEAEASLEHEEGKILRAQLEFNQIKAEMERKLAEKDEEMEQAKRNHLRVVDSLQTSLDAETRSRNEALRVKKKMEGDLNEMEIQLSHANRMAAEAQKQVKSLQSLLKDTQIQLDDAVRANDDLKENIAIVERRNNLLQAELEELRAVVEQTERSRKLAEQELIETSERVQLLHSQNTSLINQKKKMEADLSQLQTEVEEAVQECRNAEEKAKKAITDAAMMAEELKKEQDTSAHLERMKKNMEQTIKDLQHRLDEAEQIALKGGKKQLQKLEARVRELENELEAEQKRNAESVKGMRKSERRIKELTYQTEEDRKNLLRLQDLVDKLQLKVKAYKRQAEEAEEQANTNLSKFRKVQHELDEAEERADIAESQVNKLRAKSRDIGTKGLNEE

Row | Compound | Porcine Ventricle IC25 ([1]; Table 8) [µM] | Porcine Atria IC25 (Porcine Atria myofibrils; Table 8) [µM] | Rabbit Psoas IC25 ([2]; Table 8) [µM] | Porcine Ventricle IC25 ([1]; Table 7) [µM] | Porcine Atria IC25 (Porcine Atria myofibrils; Table 7) [µM] | Rabbit Psoas IC25 ([2]; Table 7) [µM]
1 | C[C@@H](NC(=O)CN1C(=O)Nc2ccc(F)cc2C12CC2)c1ccc(C#N)nn1 [Compound B334] | 1.56 | 0.58 | 1.02 |  |  | 
2 | C[C@H](NC(=O)CN1C(=O)Nc2ccc(F)cc2C12CC2)c1ccc(C#N)nn1 [Compound B335] | 100.00 | 9.42 | 100.00 |  |  | 
3 | C[C@@H](NC(=O)CN1C(=O)Nc2ccc(F)cc2C12CC2)c1cnc(C#N)cn1 [Compound B336] | 0.27 | 0.10 | 0.17 |  |  | 
4 | C[C@H](NC(=O)CN1C(=O)Nc2ccc(F)cc2C12CC2)c1cnc(C#N)cn1 [Compound B337] | 7.01 | 1.01 | 100.00 |  |  | 
5 | Cc1nc([C@@H](C)NC(=O)CN2Cc3c(ccc(F)c3F)NC2=O)cnc1C#N [Compound B338] | 1.67 | 0.08 | 17.15 |  |  | 
6 | Cc1nc(C(C)NC(=O)CN2Cc3c(ccc(F)c3F)NC2=O)no1 (stereo not drawn) [Compound B340] | 100.00 | 3.80 | 100.00 |  |  | 
7 | C[C@@H](NC(=O)CN1Cc2c(ccc(F)c2F)NC1=O)c1ncnc(C#N)c1F [Compound B341] | 0.35 | 0.73 | 1.68 |  |  | 
8 | C[C@H](NC(=O)CN1Cc2c(ccc(F)c2F)NC1=O)c1ncnc(C#N)c1F [Compound B342] | 4.85 | 0.93 | 2.45 |  |  | 
9 | Cc1ncnc([C@@H](C)NC(=O)CN2Cc3c(ccc(F)c3F)NC2=O)c1F [Compound B343] | 100.00 | 4.12 | 100.00 |  |  | 
10 | Cc1ncnc([C@H](C)NC(=O)CN2Cc3c(ccc(F)c3F)NC2=O)c1F [Compound B344] | 8.84 | 1.29 | 2.78 |  |  | 
11 | Cc1nnc(C(C)NC(=O)CN2Cc3c(ccc(F)c3F)NC2=O)o1 (stereo not drawn) [Compound B345] | 100.00 | 57.06 | 100.00 |  |  | 
12 | Cc1ncc(F)c([C@@H](C)NC(=O)CN2Cc3c(ccc(F)c3F)NC2=O)n1 [Compound B346] | 1.63 | 0.22 | 59.27 |  |  | 
13 | Cc1ncc(F)c([C@H](C)NC(=O)CN2Cc3c(ccc(F)c3F)NC2=O)n1 [Compound B347] | 100.00 | 100.00 | 100.00 |  |  | 
14 | Cc1ncc(C#N)nc1[C@@H](C)NC(=O)CN1Cc2c(ccc(F)c2F)NC1=O [Compound B348] | 6.79 | 10.17 | 9.36 |  |  | 
15 | Cc1ncc(C#N)nc1[C@H](C)NC(=O)CN1Cc2c(ccc(F)c2F)NC1=O [Compound B349] | 0.83 | 0.22 | 5.32 |  |  | 
16 | O=C(CN1Cc2c(ccc(F)c2F)NC1=O)N[C@@H]1CCc2cc(F)cnc21 [Compound B350] | 0.50 | 0.30 | 0.62 |  |  | 
17 | Cc1nc([C@H](C)NC(=O)CN2Cc3c(ccc(F)c3F)NC2=O)ncc1C#N [Compound B353] | 2.24 | 1.99 | 2.49 |  |  | 
18 | Cc1nc(C#N)cnc1[C@@H](CO)NC(=O)CN1Cc2c(ccc(F)c2F)NC1=O [Compound B354] | 3.83 | 0.21 | 68.36 |  |  | 
19 | Cc1nc(C#N)cnc1[C@H](CO)NC(=O)CN1Cc2c(ccc(F)c2F)NC1=O [Compound B355] | 0.14 | 0.05 | 0.07 |  |  | 
20 | C[C@H](NC(=O)CN1Cc2cc(F)c(F)cc2NC1=O)c1ncc(C#N)cc1F [Compound B358] | 0.33 | 0.10 | 0.13 |  |  | 
21 | Cc1nsc([C@@H](C)NC(=O)CN2Cc3c(ccc(F)c3F)NC2=O)n1 [Compound B359] | 100.00 | 4.96 | 13.87 |  |  | 
22 | C[C@@H](NC(=O)CN1Cc2c(ccc(F)c2F)NC1=O)c1cc2c(cn1)N(C)CCO2 [Compound B360] | 9.49 | 44.86 | 100.00 |  |  | 

Row | Compound | Porcine Ventricle IC25 ([1]; Table 8) [µM] | Porcine Atria IC25 (Porcine Atria myofibrils; Table 8) [µM] | Rabbit Psoas IC25 ([2]; Table 8) [µM] | Porcine Ventricle IC25 ([1]; Table 7) [µM] | Porcine Atria IC25 (Porcine Atria myofibrils; Table 7) [µM] | Rabbit Psoas IC25 ([2]; Table 7) [µM]
23 | C[C@H](NC(=O)CN1Cc2c(ccc(F)c2F)NC1=O)c1cc2c(cn1)N(C)CCO2 [Compound B361] | 100.00 | 100.00 | 100.00 |  |  | 
24 | O=C(CN1Cc2c(ccc(F)c2F)NC1=O)N[C@@H]1COCc2cc(F)cnc21 [Compound B362] | 1.04 | 100.00 | 0.52 |  |  | 
25 | O=C(CN1Cc2c(ccc(F)c2F)NC1=O)N[C@H]1COCc2cc(F)cnc21 [Compound B363] | 100.00 | 100.00 | 100.00 |  |  | 
26 | C[C@@H](NC(=O)CN1Cc2c(ccc(F)c2F)NC1=O)c1cc2c(cn1)OCCN2 [Compound B364] | 100.00 | 20.41 | 100.00 |  |  | 
27 | C[C@H](NC(=O)CN1Cc2c(ccc(F)c2F)NC1=O)c1cc2c(cn1)OCCN2 [Compound B365] | 100.00 | 100.00 | 100.00 |  |  | 
28 | N#Cc1cnc2c(c1)CC[C@H]2NC(=O)CN1C(=O)Nc2cccnc2C12CC2 [Compound N1] |  |  |  | 100 | 70.94 | 100
29 | N#Cc1cnc2c(c1)CC[C@@H]2NC(=O)CN1C(=O)Nc2cccnc2C12CC2 [Compound N2] |  |  |  | 34.26 | 17.14 | 4.055
30 | C[C@@H](NC(=O)CN1C(=O)Nc2ccc(C#N)nc2C12CC2)c1ncc(C#N)cc1F [Compound N3] |  |  |  | 100 | 2.59 | 18.85
31 | C[C@H](NC(=O)CN1C(=O)Nc2ccc(C#N)nc2C12CC2)c1ncc(C#N)cc1F [Compound N4] |  |  |  | 0.474 | 0.07 | 0.1067
32 | N#Cc1cc(F)c2c(c1)OC[C@H]2NC(=O)CN1Cc2c(ccnc2C(F)(F)F)NC1=O [Compound N5] |  |  |  | 0.1154 | 0.07 | 0.0178
33 | N#Cc1cc(F)c2c(c1)OC[C@@H]2NC(=O)CN1Cc2c(ccnc2C(F)(F)F)NC1=O [Compound N6] |  |  |  | 38.22 | 2.82 | 2.918
34 | N#Cc1nccc2c1CN(CC(=O)N[C@@H]1COc3cc(F)cc(F)c31)C(=O)N2 [Compound N7] |  |  |  | 0.266 | 0.11 | 0.0355
35 | N#Cc1nccc2c1CN(CC(=O)N[C@H]1COc3cc(F)cc(F)c31)C(=O)N2 [Compound N8] |  |  |  | 13.21 | 2.20 | 0.3271
36 | O=C(CN1Cc2cnccc2NC1=O)N[C@@H]1COc2cc(F)cc(F)c21 [Compound N10] |  |  |  | 13.44 | 0.82 | 0.4579
37 | O=C(CN1Cc2cnccc2NC1=O)N[C@H]1COc2cc(F)cc(F)c21 [Compound N11] |  |  |  | 100 | 100.00 | 100
38 | C[C@@H](NC(=O)CN1C(=O)Nc2ccc(C#N)nc2C12CC2)c1ccc(F)cc1F [Compound N12] |  |  |  | 100 | 7.63 | 100
39 | C[C@H](NC(=O)CN1C(=O)Nc2ccc(C#N)nc2C12CC2)c1ccc(F)cc1F [Compound N13] |  |  |  | 0.8569 | 0.07 | 0.063
40 | C[C@@H](NC(=O)CN1C(=O)Nc2ccc(C#N)nc2C12CC2)c1ncc(F)cc1F [Compound N14] |  |  |  | 100 | 1.16 | 100
41 | C[C@H](NC(=O)CN1C(=O)Nc2ccc(C#N)nc2C12CC2)c1ncc(F)cc1F [Compound N15, 2-{6′-Cyano-2′-oxo-1′H-spiro[cyclopropane-1,4′-pyrido[3,2-d]pyrimidin]-3′-yl}-N-[(1S)-1-(3,5-difluoropyridin-2-yl)ethyl]acetamide] |  |  |  | 2.788 | 0.07 | 0.197
42 | C[C@@H](NC(=O)CN1C(=O)Nc2cccnc2C12CC2)c1ccc(C#N)cn1 [Compound N16] |  |  |  | 100 | 0.60 | 1.645
43 | C[C@H](NC(=O)CN1C(=O)Nc2cccnc2C12CC2)c1ccc(C#N)cn1 [Compound N17] |  |  |  | 100 | 75.12 | 100
